Results from patent publication US20250041294A1, “Synergistic compositions for use in the treatment of cancer” (Sartar Therapeutics Oy, priority 2021, published 2025).
Like-named read-outs stand apart in the source and are kept apart here.

What was measured:
Assay type in all cases: cell-based
GIST882 cell line = experiment: High throughput drug sensitivity and resistance test (CellTiter-Glo, 72 hours); conditions: drug combined with BAY2666605 (40 nM) minus drug alone
Method: High throughput drug sensitivity and resistance test. […] In addition, same compounds were investigated together with anagrelide hydrochloride (100 nM) treatment in the PDE3A low expressing cell lines SA4 and GOT3, and with BAY2666605 (40 nM) in all PDE3A-positive cell lines GIST882, SA4 and GOT3. […] A cell viability was measured after 72 hours using CellTiter-Glo Cell Viability assay (Promega Inc.) and PHERAstar FS plate reader (BMG Labtech). The data were normalized to negative (0.01% dimethyl sulfoxide only) and positive (100 μmol/L benzethonium chloride) controls.
(§1) A four-parameter logistic dose-response curves were estimated by using the Marquardt-Levenberg algorithm and Breeze analysis platform. Drug responses to the test compounds were measured using the drug sensitivity score (DSS). Drug synergy partners, which were common in investigated cell lines were identified as following: DSS value of a single agent was subtracted from the DSS value of anagrelide-drug combination in single cell lines. […] The analysis was repeated by using BAY2666605 as a PDE3A modulator.

GOT3 and SA4 cell lines = experiment: High throughput drug sensitivity and resistance test, average over cell lines (anagrelide combination); conditions: anagrelide combination, average of SA4 and GOT3; aDSS higher than 3.0 = synergy
Method: (§2) Cell lines. PDE3A-positive (GIST882, SA4, and GOT3) and PDE3A-negative cell lines (93TT449, 94T778, LPS141, MLS17656-92, MLS402-91, and SW872) were cultured in RPMI Medium 1640 (Gibco) with 5-, 10- or 20% fetal bovine serum (FBS, gibco), 100 U/mL of penicillin, 100 […] and 0.03 mg/mL of L-glutamine (Pen Strep Glut, Gibco, 10378-016) in a humidified, 5% CO2 atmosphere at 37° C.
(§3) High throughput drug sensitivity and resistance test. A sensitivity and resistance of cancer cell lines to 528 compounds were investigated in 9 cell lines (GIST882, SA4, GOT3, 93TT449, 94T778, LPS141, MLS17656-92, MLS402-91, and SW872). In addition, same compounds were investigated together with anagrelide hydrochloride (100 nM) treatment in the PDE3A low expressing cell lines SA4 and GOT3, and with BAY2666605 (40 nM) in all PDE3A-positive cell lines GIST882, SA4 and GOT3. The compounds were dissolved in 100% dimethyl sulfoxide or water and plated in 10-fold dilutions covering a 10,000-fold concentration range on flat clear bottom 384-well microplates as described in detail earlier (Pulkka O P, et al 2019). A cell viability was measured after 72 hours using CellTiter-Glo Cell Viability assay (Promega Inc.) and PHERAstar FS plate reader (BMG Labtech). The data were normalized to negative (0.01% dimethyl sulfoxide only) and positive (100 μmol/L benzethonium chloride) controls.
as §1

SA4 cell line = experiment: High throughput drug sensitivity and resistance test (CellTiter-Glo, 72 hours); conditions: SA4; for SA4 cell line: DSS(combo (BAY2666605))-DSS(drug): drug combined with BAY2666605 (40 nM) minus drug alone; for SA4 cell line: DSS(combo (anagrelide))-DSS(drug): drug combined with anagrelide hydrochloride (100 nM) minus drug alone
Method: as §2, §3, §1

GOT3 cell line = experiment: as above; conditions: GOT3; for GOT3 cell line: DSS(combo (BAY2666605))-DSS(drug): drug combined with BAY2666605 (40 nM) minus drug alone; for GOT3 cell line: DSS(combo (anagrelide))-DSS(drug): drug combined with anagrelide hydrochloride (100 nM) minus drug alone
Method: as §2, §3, §1

[1] = test system: GIST882, GOT3 and SA4 cell lines; experiment: High throughput drug sensitivity and resistance test, average over cell lines (BAY2666605 combination); conditions: for Average DSS (aDSS): BAY2666605 combination, average of GIST882, SA4 and GOT3, aDSS higher than 3.0 = synergy
Method: as §2, §3, §1

[2] = with anagrelide (GOT3, SA4) or BAY2666605 (GIST882, GOT3, SA4)

| SMILES | GIST882 cell line: DSS(combo (BAY2666605))-DSS(drug) (GIST882 cell line) | Average DSS (aDSS) (GOT3 and SA4 cell lines) | SA4 cell line: DSS(combo (BAY2666605))-DSS(drug) (SA4 cell line) | SA4 cell line: DSS(combo (anagrelide))-DSS(drug) (SA4 cell line) | GOT3 cell line: DSS(combo (BAY2666605))-DSS(drug) (GOT3 cell line) | GOT3 cell line: DSS(combo (anagrelide))-DSS(drug) (GOT3 cell line) | Average DSS (aDSS) [1] | synergy in high-throughput screening (in words) [1, 2] | synergy in high-throughput screening (in words) [1] |
| --- | --- | --- | --- | --- | --- | --- | --- | --- | --- |
| CN(C)Cc1c(C(=O)NCCOc2ccc(C(=O)NO)cc2)oc2ccccc12 [Abexinostat, abexinostat] | 4.2 | 4.9 | 12.3 | 10.9 | 2.1 | −1.1 | 6.2 | synergistic | – |
| O=C(/C=C/c1cccc(S(=O)(=O)Nc2ccccc2)c1)NO [Belinostat, belinostat] | −0.3 | 5.55 | 15.8 | 10 | 0.8 | 1.1 | 5.4 | synergistic | – |
| Cn1c(=O)n(-c2ccc(C(C)(C)C#N)cc2)c2c3cc(-c4cnc5ccccc5c4)ccc3ncc21 [Dactolisib, dactolisib] | 3.1 | – | 4.6 | – | 8.2 | – | 5.3 | synergistic | – |
| NC(=O)/C(=C/n1cnc(-c2cc(C(F)(F)F)cc(C(F)(F)F)c2)n1)c1cncnc1 [Eltanexor, eltanexor] | 5.4 | – | 3.1 | – | 0.8 | – | 3.1 | synergistic | – |
| CCN(CC)Cc1ccc2cc(COC(=O)Nc3ccc(C(=O)NO)cc3)ccc2c1 [Givinostat, givinostat] | 7.3 | 4.65 | 18.5 | 10 | 3 | −0.7 | 9.6 | synergistic | – |
| COc1cc(C(=O)O)ccc1NC(=O)[C@@H]1N[C@@H](CC(C)(C)C)[C@](C#N)(c2ccc(Cl)cc2F)[C@H]1c1cccc(Cl)c1F [Idasanutlin, idasanutlin] | 0 | 3.75 | 19.6 | 8.5 | −0.5 | −1 | 6.4 | synergistic | – |
| CO[C@@H](C)Cn1c(=O)n(C)c2cnc3ccc(-c4cncc(C(C)(C)O)c4)cc3c21 [LY3023414] | 2.4 | – | 9.3 | – | 1.5 | – | 4.4 | synergistic | – |
| COc1ccc(-c2ccc3ncc4c(c3c2)n(-c2ccc(N3CCNCC3)c(C(F)(F)F)c2)c(=O)n4C)cn1 [NVP-BGT226] | 6.2 | – | 8.1 | – | 0.1 | – | 4.8 | synergistic | – |
| CC(=O)c1cnc2ccc(-c3cc(Cl)c(O)c(Cl)c3)nc2c1N[C@H]1CC[C@H](CN(C)C)CC1 [OTS167] | 1.9 | 5.55 | 10.5 | 10.5 | 3.2 | 0.6 | 5.2 | synergistic | – |
| COc1ncc(-c2ccc3nccc(-c4ccnnc4)c3c2)cc1NS(=O)(=O)c1ccc(F)cc1F [Omipalisib, omipalisib] | 7.4 | – | 6.5 | – | −0.4 | – | 4.5 | synergistic | – |
| Cc1[nH]c2ccccc2c1CCNCc1ccc(/C=C/C(=O)NO)cc1 [Panobinostat, panobinostat] | 6.1 | 5.6 | 6.7 | 11.7 | 8.2 | −0.5 | 7.0 | – | – |
| CC(C)N(C[C@H]1O[C@@H](n2cnc3c(N)ncnc32)[C@H](O)[C@@H]1O)[C@H]1C[C@@H](CCc2nc3cc(C(C)(C)C)ccc3[nH]2)C1 [Pinometostat, pinometostat] | 3.9 | – | 9.8 | – | 0 | – | 4.6 | synergistic | – |
| CCCCc1nc2cc(/C=C/C(=O)NO)ccc2n1CCN(CC)CC [Pracinostat, pracinostat] | 5.7 | 6.7 | 12 | 14.8 | 1.5 | −1.4 | 6.4 | synergistic | – |
| CN(C)Cc1ccc(S(=O)(=O)n2ccc(/C=C/C(=O)NO)c2)cc1 [Resminostat, resminostat] | 3.1 | 6.7 | 11.7 | 13.5 | 3.1 | −0.1 | 6.0 | synergistic | – |
| CO[C@H]1C[C@@H]2CC[C@@H](C)[C@@](O)(O2)C(=O)C(=O)N2CCCC[C@H]2C(=O)O[C@H]([C@H](C)C[C@@H]2CC[C@@H](OP(C)(C)=O)[C@H](OC)C2)CC(=O)[C@H](C)/C=C(\C)[C@@H](O)[C@@H](OC)C(=O)[C@H](C)C[C@H](C)/C=C/C=C/C=C/1C [Ridaforolimus, ridaforolimus] | 0.3 | 8.8 | 13.7 | 13.2 | −1.9 | 4.4 | – | – | – |
| O=C(CCCCCCNC(=O)c1cnc(N(c2ccccc2)c2ccccc2)nc1)NO [Rocilinostat, rocilinostat] | 1.4 | – | 7.5 | – | 0.9 | – | 3.3 | – | synergistic |
| O=C(/C=C\n1cnc(-c2cc(C(F)(F)F)cc(C(F)(F)F)c2)n1)NNc1cnccn1 [Selinexor] | 7.9 | – | 5.4 | – | −0.7 | – | 4.2 | synergistic | – |
| Cn1nnc2c(C(N)=O)ncn2c1=O [Temozolomide, temozolomide] | 5.4 | – | 5.2 | – | 1.9 | – | 4.2 | – | – |
| CN1CCc2c(c3ccccc3n2Cc2ccc(C(=O)NO)cc2)C1 [Tubastatin A, tubastatin A] | −0.3 | – | 10.7 | – | 2.8 | – | 4.4 | synergistic | – |
